# Test results published in patent US8906913B2, “Azabicyclohexanes” (Panacea Biotec Limited, priority 2009, dated 2014).
# Tests used:
# male SWISS albino mice = experiment: Forced Swim Test; type: in vivo; conditions: Table 8, mice, oral, suspended in deionized water, 15 min before test; for inhibition in vivo at 32 mg/kg: Mus musculus, 0.25 h, read-out: % decrease in immobility time (dose 32 mg/kg)
# Method: This test was conducted according to the method of Porsolt et al. (Porsolt, R. D., et al., Behavioural despair in mice: A primary screening test for antidepressants. Arch. in Pharmacodyn. Ther., 229, pp 327-336 (1977)).
# A test compound was suspended in deionized water, unless otherwise specified, and this suspension was orally administered to male SWISS albino mice (7 to 9 week old). 15 min later, the mice were placed in a water tank having a water depth of 15 cm and a water temperature of 25±1° C. and immediately thereafter allowed to swim for 6 min. Then, a time during which the mouse was immobile (immobility time) was measured for the last 4 min.
# [1] = tested on: Enterococcus faecalis ATCC 29212 Vancomycin Sensitive; experiment: In-vitro antibacterial activity, broth microdilution MIC; type: cell-based; conditions: ATCC29212, Table 7, E. faecalis vancomycin sensitive, broth microdilution, 35±2° C., 16-20 h, read-out: MIC ATCC 29212
# Method: (§1) The in-vitro antibacterial activity of the compounds of the present invention (as described in Table 7) was determined by a broth microdilution following the guidelines prescribed by the Clinical and Laboratory Standards Institute (CLSI). This method is described in the CLSI Document M7-A7, Vol. 26, No. 2, “Methods for Dilution Antimicrobial Susceptibility Test for Bacteria that Grow Aerobically; Approved Standard-Seventh Edition”, which is incorporated herein by reference. Minimum Inhibitory Concentration (MIC) is defined as the minimum concentration of test compound which inhibits the growth of bacteria as visible or seen by the naked eye. This test can also be carried out by agar dilution method.
# (§2) The compounds of the present invention were tested against a panel of standard microorganisms obtained from ATCC (American type culture collection). Linezolid was used as comparator in all the tests.
# (§3) In the broth microdilution method, the compound was dissolved in dimethylsulfoxide and two fold serial dilutions were carried out in 96 well microtitre plates. The inoculum was prepared by adjusting the turbidity of actively growing broth culture and added to the wells to obtain a final bacterial count of ˜2-5×10^4 CFU/well. The microtitre plates were incubated at 35±2° C. for 16-20 h and then read visually.
# [2] = tested on: Enterococcus faecium ATCC 700221 VRE (Vancomycin resistant E. faecium); experiment: as above; type: cell-based; conditions: Table 7, broth microdilution, 35±2° C., 16-20 h, read-out: MIC ATTC 700221
# Method: as §1, §2, §3
# [3] = tested on: Staphylococcus aureus ATCC 29213 MSSA (Methicillin sensitive); experiment: as above; type: cell-based; conditions: Table 7, S. aureus MSSA, broth microdilution, 35±2° C., 16-20 h, read-out: MIC ATCC 29213
# Method: as §1, §2, §3
# [4] = tested on: Staphylococcus aureus ATCC 33591 MRSA (Methicillin resistant); experiment: as above; type: cell-based; conditions: Table 7, S. aureus MRSA, broth microdilution, 35±2° C., 16-20 h, read-out: MIC ATCC 33591
# Method: as §1, §2, §3
Compound,inhibition in vivo at 32 mg/kg (male SWISS albino mice) [%],MIC [1] [µg/mL],MIC [2] [µg/mL],MIC [3] [µg/mL],MIC [4] [µg/mL],% decrease in immobility time (dose 64 mg/kg) (male SWISS albino mice) [%]
CCN1C[C@H]2C[C@@]2(c2ccc(N3CCC(F)C3)cc2)C1 (some centres unmarked),75.5 ± 12.9,–,–,–,–,–
CCOCC1C2CN(CC)CC12c1ccc(N2CCCC2)cc1 (centres unmarked),80.6 ± 13.7,–,–,–,–,–
CC(=O)NC[C@H]1CN(c2ccc(C34CC3CN(C(=O)c3cn5cccnc5n3)C4)cc2)C(=O)O1 (some centres unmarked),–,1,1,2,2,–
CCN1CC2C(COC)C2(c2ccc(N3CCOCC3)cc2)C1 (centres unmarked),–,–,–,–,–,58.4 ± 10.1
COCCN1C[C@H]2C[C@@]2(c2ccc(N3CCOCC3)cc2)C1,–,–,–,–,–,79.2 ± 14.9
CCN1C[C@H]2C[C@@]2(c2ccc(N3CC(C)OC(C)C3)cc2)C1 (some centres unmarked),–,–,–,–,–,92.4 ± 7.6
COC(=O)N1C[C@@H]2C[C@]2(c2ccc(N3C[C@H](CNC(C)=O)OC3=O)cc2)C1,–,1,0.5,1,0.5,–
CCN1C[C@H]2C[C@@]2(c2ccc(N3CCOCC3)cc2)C1,87.7 ± 6,–,–,–,–,–
CCN1C[C@H]2C[C@@]2(c2ccc(N3CCCC3)cc2)C1,97.7 ± 2.3,–,–,–,–,–
CC(=O)NC[C@H]1CN(c2ccc(C34CC3CN(C(C)=O)C4)cc2)C(=O)O1 (some centres unmarked) [drawing 482],–,2,2,2,1,–
COC(=O)N1C[C@H]2C[C@@]2(c2ccc(N3C[C@H](CNC(C)=O)OC3=O)cc2)C1,–,1,1,2,1,–
CCN1CC2CC2(c2ccc(N3CCOCC3=O)cc2)C1.Cl (centres unmarked),–,–,–,–,–,88.7 ± 5.2
CCN1C[C@H]2C[C@@]2(c2ccc(N3C[C@H](C)O[C@@H](C)C3)cc2)C1,79.8 ± 10.7,–,–,–,–,–
CC(=O)NC[C@H]1CN(c2ccc(C34CC3CN(C#N)C4)cc2)C(=O)O1 (some centres unmarked),–,1,0.5,0.5,0.5,–
CC(=O)NC[C@H]1CN(c2ccc(C34CC3CN(C(C)=O)C4)c(F)c2)C(=O)O1 (some centres unmarked),–,1,0.5,1,0.5,–
CC(=O)N1CC2CC2(c2ccc(N3C[C@H](CO)OC3=O)cc2)C1 (some centres unmarked) [drawing 484],–,4,4,4,2,–
CC(=O)NC[C@H]1CN(c2ccc(C34CC3CN(C(=O)C(F)(F)F)C4)cc2)C(=O)O1 (some centres unmarked),–,2,1,2,2,–
CC(=O)NC[C@H]1CN(c2ccc(C34CC3CN(C(=O)CO)C4)cc2)C(=O)O1 (some centres unmarked),–,0.5,0.5,0.5,0.5,–
c1cc(C23CNCC2C3)ccc1N1CCOCC1 (centres unmarked) [drawing 510],–,–,–,–,–,37.6 ± 14.5
CCN1CC2CC2(c2ccc(N3CCCC3)cc2)C1 (centres unmarked) [drawing 519],99.9 ± 0.1,–,–,–,–,–
COC(=O)NC[C@H]1CN(c2ccc(C34CC3CN(C(=O)OC)C4)cc2)C(=O)O1 (some centres unmarked),–,1,1,1,1,–
CC(=O)NC[C@H]1CN(c2ccc(C34CC3CN(c3nc5ccccc5s3)C4)cc2)C(=O)O1 (some centres unmarked),–,1,0.25,1,0.5,–
COC(=O)N1CC2CC2(c2ccc(N3C[C@H](CNC(C)=O)OC3=O)cc2F)C1 (some centres unmarked),–,0.5,0.5,1,0.5,–
CC(=O)NC[C@H]1CN(c2ccc(C34CC3CN(S(C)(=O)=O)C4)cc2)C(=O)O1 (some centres unmarked),–,2,1,2,1,–
CC(=O)NC[C@H]1CN(c2ccc(C34CC3CN(C(=O)CCc3ccccc3)C4)cc2)C(=O)O1 (some centres unmarked),–,1,0.5,1,1,–
CC(=O)NC[C@H]1CN(c2ccc(C34CC3CN(C(=O)N(C)C)C4)cc2)C(=O)O1 (some centres unmarked),–,0.5,0.25,4,1,–
